Here are results for 45 compounds from patent publication US9732075B2, “Benzimidazole-proline derivatives” (IDORSIA PHARMACEUTICALS LTD, priority 2012, dated 2017).

SMILES strings stand for the structures.

One experiment addresses human orexin-1 receptor (Homo sapiens (Human), UniProt O43613). As to the kind of experiment: In vitro assay: intracellular calcium measurements (FLIPR), antagonistic activity. As to conditions: CHO cells expressing human orexin-1 receptor, orexin-A agonist, geometric mean, read-out: IC50 Ox1. It is filed as cell-based. As to the method:
(§1) In Vitro Assay: Intracellular Calcium Measurements:
(§2) Chinese hamster ovary (CHO) cells expressing the human orexin-1 receptor and the human orexin-2 receptor, respectively, are grown in culture medium (Ham F-12 with L-Glutamine) containing 300 μg/ml G418, 100 U/ml penicillin, 100 μg/ml streptomycin and 10% heat inactivated fetal calf serum (FCS). The cells are seeded at 20,000 cells/well into 384-well black clear bottom sterile plates (Greiner). The seeded plates are incubated overnight at 37° C. in 5% CO2.
(§3) Human orexin-A as an agonist is prepared as 1 mM stock solution in MeOH: water (1:1), diluted in HBSS containing 0.1% bovine serum albumin (BSA), NaHCO3: 0.375 g/l and 20 mM HEPES for use in the assay at a final concentration of 3 nM.
(§4) Antagonists are prepared as 10 mM stock solution in DMSO, then diluted in 384-well plates using DMSO followed by a transfer of the dilutions into in HBSS containing 0.1% bovine serum albumin (BSA), NaHCO3: 0.375 g/l and 20 mM HEPES. On the day of the assay, 50 μl of staining buffer (HBSS containing 1% FCS, 20 mM HEPES, NaHCO3: 0.375 g/l, 5 mM probenecid (Sigma) and […] of the fluorescent calcium indicator fluo-4 AM (1 mM stock solution in DMSO, containing 10% pluronic) is added to each well. The 384-well cell-plates are incubated for 50 min at 37° C. in 5% CO2 followed by equilibration at RT for 30 min before measurement.
(§5) Within the Fluorescent Imaging Plate Reader (FLIPR Tetra, Molecular Devices), antagonists are added to the plate in a volume of 10 μl/well, incubated for 120 min and finally 10 μl/well of agonist is added. Fluorescence is measured for each well at 1 second intervals, and the height of each fluorescence peak is compared to the height of the fluorescence peak induced by an approximate EC70 (for example 5 nM) of orexin-A with vehicle in place of antagonist. The IC50 value (the concentration of compound needed to inhibit 50% of the agonistic response) is determined and may be normalized using the obtained IC50 value of a on-plate reference compound. Optimized conditions are achieved by adjustment of pipetting speed and cell splitting regime. The calculated IC50 values may fluctuate depending on the daily cellular assay performance. Fluctuations of this kind are known to those skilled in the art. Average IC50 values from several measurements are given as geometric mean values.

A further experiment has as its target human orexin-2 receptor (Homo sapiens (Human), UniProt O43614). Described as above. As to conditions: CHO cells expressing human orexin-2 receptor, orexin-A agonist, geometric mean, read-out: IC50 Ox2. It is filed as cell-based. On the procedure:
as §1, §2, §3, §4, §5

Chain of human orexin-2 receptor (O43614 whole entry): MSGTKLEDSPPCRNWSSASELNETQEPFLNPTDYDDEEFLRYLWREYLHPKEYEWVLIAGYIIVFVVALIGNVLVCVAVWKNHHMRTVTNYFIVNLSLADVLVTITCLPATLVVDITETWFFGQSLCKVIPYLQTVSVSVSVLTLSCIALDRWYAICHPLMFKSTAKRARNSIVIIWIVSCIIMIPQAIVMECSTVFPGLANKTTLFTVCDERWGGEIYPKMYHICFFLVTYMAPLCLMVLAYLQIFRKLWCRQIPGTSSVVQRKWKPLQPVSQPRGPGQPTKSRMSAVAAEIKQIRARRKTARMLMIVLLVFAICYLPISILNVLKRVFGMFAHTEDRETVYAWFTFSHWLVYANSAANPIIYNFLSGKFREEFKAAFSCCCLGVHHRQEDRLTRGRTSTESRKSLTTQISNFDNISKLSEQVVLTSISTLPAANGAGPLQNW
Chain of human orexin-1 receptor (O43613 whole entry): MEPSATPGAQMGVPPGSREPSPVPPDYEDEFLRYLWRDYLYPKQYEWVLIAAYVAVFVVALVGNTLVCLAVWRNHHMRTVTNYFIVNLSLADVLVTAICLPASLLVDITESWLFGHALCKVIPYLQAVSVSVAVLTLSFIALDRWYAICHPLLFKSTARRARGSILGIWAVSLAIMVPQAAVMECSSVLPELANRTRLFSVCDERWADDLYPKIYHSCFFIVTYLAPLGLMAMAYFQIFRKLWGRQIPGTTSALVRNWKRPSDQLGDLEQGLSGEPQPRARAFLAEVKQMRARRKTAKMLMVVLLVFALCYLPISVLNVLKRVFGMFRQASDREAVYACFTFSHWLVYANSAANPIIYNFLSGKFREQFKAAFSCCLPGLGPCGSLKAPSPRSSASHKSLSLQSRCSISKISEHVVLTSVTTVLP

On to `CSc1ccc2nc([C@@H]3CCCN3C(=O)c3nc(C)sc3-c3cccc(Cl)c3)[nH]c2c1` [Ex. 1.43], for which the IC50 at human orexin-1 receptor turned out to be 0.097 µM; on human orexin-2 receptor it was 0.058 µM.
On the same counts, the results for `CSc1ccc2nc([C@@H]3CCCN3C(=O)c3nc(C)sc3-c3cc(F)cc(F)c3)[nH]c2c1` [Ex. 1.44] are 0.404 µM and 0.12 µM.
On the same counts, the results for `CSc1ccc2nc([C@@H]3CCCN3C(=O)c3nccnc3-c3cc(C)cc(F)c3)[nH]c2c1` [Ex. 1.45] are 0.501 µM and 0.109 µM.
Consider `CSc1ccc2nc([C@@H]3CCCN3C(=O)c3ccccc3-c3ccc(C)c(C)c3)[nH]c2c1` [Ex. 1.46], for which the IC50 came out at 0.128 µM on human orexin-1 receptor and 0.013 µM at human orexin-2 receptor.
For `CSc1ccc2nc([C@@H]3CCCN3C(=O)c3ccccc3-n3nccn3)[nH]c2c1` [Ex. 1.47], in that order: 0.446 µM and 0.013 µM.
On the same counts, the results for `CSc1ccc2nc([C@@H]3CCCN3C(=O)c3cnc(C)nc3-c3ccc(Cl)c(Cl)c3)[nH]c2c1` [Ex. 1.49] are 0.032 µM and 0.042 µM.
Consider `CSc1ccc2nc([C@@H]3CCCN3C(=O)c3cnc(C)nc3-c3ccc(F)cc3)[nH]c2c1` [Ex. 1.50], for which the IC50 on human orexin-1 receptor was 0.394 µM; at human orexin-2 receptor it was 0.107 µM.
For `CSc1ccc2nc([C@@H]3CCCN3C(=O)c3cnc(C)nc3-c3cccc(Cl)c3)[nH]c2c1` [Ex. 1.51], in that order: 0.066 µM and 0.021 µM.
For `CSc1ccc2nc([C@@H]3CCCN3C(=O)c3cncnc3-c3ccc(Cl)c(Cl)c3)[nH]c2c1` [Ex. 1.52], in that order: 0.737 µM and 0.121 µM.
On the same counts, the results for `CSc1ccc2nc([C@@H]3CCCN3C(=O)c3cncnc3-c3ccc(C)c(C)c3)[nH]c2c1` [Ex. 1.53] are 0.616 µM and 0.09 µM.
With `CSc1ccc2nc([C@@H]3CCCN3C(=O)c3cncnc3-c3ccc(Br)c(Cl)c3)[nH]c2c1` [Ex. 1.54], the half-inhibitory concentration (IC50) is 0.726 µM on human orexin-1 receptor and 0.08 µM at human orexin-2 receptor.
On the same counts, the results for `CSc1ccc2nc([C@@H]3CCCN3C(=O)c3cnc(C)nc3-c3ccc(C)c(C)c3)[nH]c2c1` [Ex. 1.55] are 0.035 µM and 0.01 µM.
For `COc1cccc(-c2nc(C)ncc2C(=O)N2CCC[C@H]2c2nc3ccc(SC)cc3[nH]2)c1` [Ex. 1.56], in that order: 0.252 µM and 0.088 µM.
On the same counts, the results for `CSc1ccc2nc([C@@H]3CCCN3C(=O)c3cnc(C)nc3-c3ccccc3)[nH]c2c1` [Ex. 1.57] are 0.076 µM and 0.022 µM.
For `CSc1ccc2nc([C@@H]3CCCN3C(=O)c3cnc(C)nc3-c3ccc(Br)c(Cl)c3)[nH]c2c1` [Ex. 1.58], the IC50 came to 0.032 µM on human orexin-1 receptor and 0.024 µM at human orexin-2 receptor.
On the same counts, the results for `CSc1ccc2nc([C@@H]3CCCN3C(=O)c3cnc(C)nc3-c3cc(Cl)cc(Cl)c3)[nH]c2c1` [Ex. 1.59] are 0.077 µM and 0.252 µM.
For `CSc1cccc2nc([C@@H]3CCCN3C(=O)c3nc(C)sc3-c3ccc(Br)cc3)[nH]c12` [Ex. 1.60], in that order: 0.061 µM and 0.048 µM.
On the same counts, the results for `CSc1cccc2nc([C@@H]3CCCN3C(=O)c3nc(C4CC4)sc3-c3ccccc3)[nH]c12` [Ex. 1.61] are 0.021 µM and 0.021 µM.
In the case of `CSc1cccc2nc([C@@H]3CCCN3C(=O)c3nc(C)sc3-c3cccc(Cl)c3Cl)[nH]c12` [Ex. 1.62], the half-inhibitory concentration (IC50) at human orexin-1 receptor turned out to be 0.128 µM; on human orexin-2 receptor it was 0.197 µM.
On the same counts, the results for `COc1cccc(-c2sc(C)nc2C(=O)N2CCC[C@H]2c2nc3cccc(SC)c3[nH]2)c1` [Ex. 1.63] are 0.012 µM and 0.009 µM.
For `CSc1cccc2nc([C@@H]3CCCN3C(=O)c3nc(C)sc3-c3cccc(C(F)(F)F)c3)[nH]c12` [Ex. 1.64], in that order: 0.012 µM and 0.018 µM.
For `CSc1cccc2nc([C@@H]3CCCN3C(=O)c3nc(C)sc3-c3cccc(F)c3)[nH]c12` [Ex. 1.65], in that order: 0.063 µM and 0.147 µM.
As to `CSc1cccc2nc([C@@H]3CCCN3C(=O)c3nc(C)sc3-c3ccc(C)cc3)[nH]c12` [Ex. 1.66], the IC50 at human orexin-1 receptor came to 0.02 µM; at human orexin-2 receptor, 0.047 µM.
Take `CSc1cccc2nc([C@@H]3CCCN3C(=O)c3nc(C)sc3-c3ccc(F)c(F)c3)[nH]c12` [Ex. 1.67]: the values for the IC50 on human orexin-1 receptor and on human orexin-2 receptor were 0.127 µM and 0.084 µM, respectively.
In the case of `CSc1cccc2nc([C@@H]3CCCN3C(=O)c3nc(C4CC4)sc3-c3ccc(C)cc3)[nH]c12` [Ex. 1.68], the IC50 on human orexin-1 receptor was 0.007 µM; on human orexin-2 receptor, 0.008 µM.
For `CCc1ccc(-c2sc(C)nc2C(=O)N2CCC[C@H]2c2nc3cccc(SC)c3[nH]2)cc1` [Ex. 1.69], in that order: 0.037 µM and 0.031 µM.
`CSc1cccc2nc([C@@H]3CCCN3C(=O)c3nc(C4CC4)sc3-c3ccc(F)cc3)[nH]c12` [Ex. 1.70]: the IC50 on human orexin-1 receptor and on human orexin-2 receptor was 0.026 µM in each case.
Consider `CSc1cccc2nc([C@@H]3CCCN3C(=O)c3nc(C)sc3-c3cc(F)cc(F)c3)[nH]c12` [Ex. 1.71], for which the IC50 on human orexin-1 receptor was found to be 0.095 µM; at human orexin-2 receptor it was 0.162 µM.
On the same counts, the results for `COc1ccc(-c2nccnc2C(=O)N2CCC[C@H]2c2nc3cccc(SC)c3[nH]2)cc1` [Ex. 1.72] are 0.112 µM and 0.18 µM.
For `CSc1cccc2nc([C@@H]3CCCN3C(=O)c3nccnc3-c3cccc(C(F)(F)F)c3)[nH]c12` [Ex. 1.73], in that order: 0.136 µM and 0.282 µM.
On the same counts, the results for `CSc1cccc2nc([C@@H]3CCCN3C(=O)c3nccnc3-c3cc(C)cc(F)c3)[nH]c12` [Ex. 1.74] are 0.052 µM and 0.1 µM.
With `CSc1cccc2nc([C@@H]3CCCN3C(=O)c3ccccc3-c3ccc(C)c(C)c3)[nH]c12` [Ex. 1.75], the IC50 on human orexin-1 receptor is 0.005 µM; on human orexin-2 receptor, 0.009 µM.
Take `CSc1cccc2nc([C@@H]3CCCN3C(=O)c3ccccc3-n3nccn3)[nH]c12` [Ex. 1.76]: the IC50 was determined as 0.279 µM at human orexin-1 receptor and 0.017 µM on human orexin-2 receptor.
Take `CSc1cccc2nc([C@@H]3CCCN3C(=O)c3cncnc3-c3ccc(C)cc3)[nH]c12` [Ex. 1.78]: the IC50 is 0.102 µM at human orexin-1 receptor and 0.408 µM at human orexin-2 receptor.
As to `CSc1cccc2nc([C@@H]3CCCN3C(=O)c3cnc(C)nc3-c3ccc(Cl)c(Cl)c3)[nH]c12` [Ex. 1.79], the IC50 turned out to be 0.005 µM on human orexin-1 receptor and 0.046 µM at human orexin-2 receptor.
For `CSc1cccc2nc([C@@H]3CCCN3C(=O)c3cnc(C)nc3-c3ccc(F)cc3)[nH]c12` [Ex. 1.80], in that order: 0.041 µM and 0.564 µM.
Take `CSc1cccc2nc([C@@H]3CCCN3C(=O)c3cnc(C)nc3-c3cccc(Cl)c3)[nH]c12` [Ex. 1.81]: the values for the IC50 on human orexin-1 receptor and on human orexin-2 receptor were 0.02 µM and 0.116 µM, respectively.
For `CSc1cccc2nc([C@@H]3CCCN3C(=O)c3cncnc3-c3ccc(Cl)c(Cl)c3)[nH]c12` [Ex. 1.82], the results for the IC50 at human orexin-1 receptor and on human orexin-2 receptor were 0.013 µM and 0.017 µM, respectively.
For `CSc1cccc2nc([C@@H]3CCCN3C(=O)c3cncnc3-c3ccc(C)c(C)c3)[nH]c12` [Ex. 1.83], in that order: 0.017 µM and 0.036 µM.
For `CSc1cccc2nc([C@@H]3CCCN3C(=O)c3cncnc3-c3ccc(Br)c(Cl)c3)[nH]c12` [Ex. 1.84], in that order: 0.014 µM and 0.02 µM.
For `CSc1cccc2nc([C@@H]3CCCN3C(=O)c3cnc(C)nc3-c3ccc(C)c(C)c3)[nH]c12` [Ex. 1.85], in that order: 0.005 µM and 0.023 µM.
`COc1cccc(-c2nc(C)ncc2C(=O)N2CCC[C@H]2c2nc3cccc(SC)c3[nH]2)c1` [Ex. 1.86]: the IC50 at human orexin-1 receptor is 0.056 µM; at human orexin-2 receptor, 0.118 µM.
With `CSc1cccc2nc([C@@H]3CCCN3C(=O)c3cnc(C)nc3-c3ccccc3)[nH]c12` [Ex. 1.87], the results for the IC50 at human orexin-1 receptor and on human orexin-2 receptor were 0.03 µM and 0.077 µM, respectively.
Take `CSc1cccc2nc([C@@H]3CCCN3C(=O)c3cncnc3-c3cccc(C)c3)[nH]c12` [Ex. 1.88]: the IC50 at human orexin-1 receptor stood at 0.102 µM; at human orexin-2 receptor, 0.109 µM.
For `CSc1cccc2nc([C@@H]3CCCN3C(=O)c3cncnc3-c3cc(Cl)cc(Cl)c3)[nH]c12` [Ex. 1.89], in that order: 0.039 µM and 0.18 µM.
